This is an account of results in patent US9981975B2, “Pyrrolotriazine compounds as tam inhibitors” (Incyte Corporation, priority 2016, dated 2018).

Where only a bound is given, the exact number is not on record here.

Format in all cases: biochemical
One experiment addresses phosphor-Axl (Homo sapiens (Human), UniProt P30530). Briefly: TAM Enzymatic Assay (HTRF), Axl. Conditions: recombinant autophosphorylated Axl, 60 min, room temperature.
A further experiment has as its target c-Mer (Homo sapiens (Human), UniProt Q12866). Kind of experiment: TAM Enzymatic Assay (HTRF), Mer. Conditions: 60 min, room temperature. How it is done: The kinase assay buffer contained 50 mM HEPES, pH7.5, 10 mM MgCl2, 1 mM EGTA, 0.01% NP-40 and 2 mM DTT. 0.1 ul test compounds dissolved in DMSO were transferred from compound plates to white 384-well assay plates (Greiner […] plates). […] 4 ul enzyme solution (or assay buffer for the enzyme blank) was added to the appropriate wells in each plate, and then 4 ul/well substrate solution was added to initiate the reaction. The plate was protected from light and incubated at room temperature for 60 min. […] The plate was incubated for 1 h at room temperature, and HTRF (homogenous time resolved fluorescence) signal was measured on a PHERAstar FS plate reader (BMG labtech). Percentage of inhibition was calculated for each concentration and IC50 value was generated from curve fitting with GraphPad Prism software.

The target in the next experiment is Tyro3 (Homo sapiens (Human), UniProt Q06418). Kind of experiment: TAM Enzymatic Assay (HTRF), Tyro3. The settings on record: Tyro3, 60 min, room temperature. In a few lines:
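HTRF kinase assay in 50 mM HEPES pH 7.5, 10 mM MgCl2, 1 mM EGTA, 0.01% NP-40, 2 mM DTT; compound in DMSO pre-dispensed, enzyme added, reaction started with substrate, 60 min at room temperature in the dark.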
On the technique in general: Time-resolved FRET reads energy transfer from a long-lived donor to a nearby acceptor.

Chain of phosphor-Axl (P30530 26-894): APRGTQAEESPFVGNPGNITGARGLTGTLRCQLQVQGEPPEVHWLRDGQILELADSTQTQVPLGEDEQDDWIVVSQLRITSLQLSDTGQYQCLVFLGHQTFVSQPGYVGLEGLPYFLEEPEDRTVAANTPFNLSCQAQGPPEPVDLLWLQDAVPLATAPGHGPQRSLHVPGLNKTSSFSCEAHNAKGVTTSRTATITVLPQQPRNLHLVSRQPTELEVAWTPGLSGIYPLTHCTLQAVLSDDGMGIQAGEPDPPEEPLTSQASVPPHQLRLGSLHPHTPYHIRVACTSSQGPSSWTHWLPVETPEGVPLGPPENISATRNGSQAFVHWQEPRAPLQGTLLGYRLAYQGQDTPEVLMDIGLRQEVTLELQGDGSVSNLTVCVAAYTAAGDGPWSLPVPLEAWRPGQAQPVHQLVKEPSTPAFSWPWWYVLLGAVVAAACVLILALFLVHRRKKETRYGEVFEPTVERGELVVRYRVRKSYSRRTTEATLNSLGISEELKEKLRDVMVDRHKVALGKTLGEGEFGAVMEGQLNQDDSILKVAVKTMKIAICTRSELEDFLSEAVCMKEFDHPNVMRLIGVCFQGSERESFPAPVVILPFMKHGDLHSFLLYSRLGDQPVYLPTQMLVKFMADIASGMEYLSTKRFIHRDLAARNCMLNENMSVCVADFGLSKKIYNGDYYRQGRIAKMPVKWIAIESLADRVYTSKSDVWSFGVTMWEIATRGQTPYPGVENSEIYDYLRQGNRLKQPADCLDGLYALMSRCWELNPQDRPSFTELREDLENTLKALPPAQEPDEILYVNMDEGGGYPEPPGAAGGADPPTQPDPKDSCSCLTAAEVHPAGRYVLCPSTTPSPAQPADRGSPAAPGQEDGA
Chain of c-Mer (Q12866 21-999): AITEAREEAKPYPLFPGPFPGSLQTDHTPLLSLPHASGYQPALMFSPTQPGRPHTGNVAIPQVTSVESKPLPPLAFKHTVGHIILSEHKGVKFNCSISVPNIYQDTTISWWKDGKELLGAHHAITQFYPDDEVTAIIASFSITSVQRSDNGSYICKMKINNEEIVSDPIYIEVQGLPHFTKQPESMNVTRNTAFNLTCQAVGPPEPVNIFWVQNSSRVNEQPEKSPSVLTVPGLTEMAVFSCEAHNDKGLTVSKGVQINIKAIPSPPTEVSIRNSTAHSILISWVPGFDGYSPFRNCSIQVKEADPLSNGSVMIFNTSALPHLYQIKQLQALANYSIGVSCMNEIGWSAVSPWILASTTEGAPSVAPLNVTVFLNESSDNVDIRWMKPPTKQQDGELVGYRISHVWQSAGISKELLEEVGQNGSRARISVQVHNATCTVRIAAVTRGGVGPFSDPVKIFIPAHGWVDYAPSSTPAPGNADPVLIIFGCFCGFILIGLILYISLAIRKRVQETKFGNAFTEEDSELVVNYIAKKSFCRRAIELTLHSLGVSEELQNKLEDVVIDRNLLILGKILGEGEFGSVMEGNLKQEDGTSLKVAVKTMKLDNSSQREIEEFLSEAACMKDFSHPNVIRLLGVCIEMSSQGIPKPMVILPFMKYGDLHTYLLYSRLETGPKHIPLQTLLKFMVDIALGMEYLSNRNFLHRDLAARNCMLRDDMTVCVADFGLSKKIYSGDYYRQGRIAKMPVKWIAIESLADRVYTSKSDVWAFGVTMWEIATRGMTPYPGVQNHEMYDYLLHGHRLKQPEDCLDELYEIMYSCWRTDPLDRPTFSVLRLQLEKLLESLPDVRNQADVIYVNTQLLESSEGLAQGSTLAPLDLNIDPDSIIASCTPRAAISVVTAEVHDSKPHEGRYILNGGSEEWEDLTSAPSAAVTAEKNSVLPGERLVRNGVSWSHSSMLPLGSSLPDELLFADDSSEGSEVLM
Chain of Tyro3 (Q06418 41-890): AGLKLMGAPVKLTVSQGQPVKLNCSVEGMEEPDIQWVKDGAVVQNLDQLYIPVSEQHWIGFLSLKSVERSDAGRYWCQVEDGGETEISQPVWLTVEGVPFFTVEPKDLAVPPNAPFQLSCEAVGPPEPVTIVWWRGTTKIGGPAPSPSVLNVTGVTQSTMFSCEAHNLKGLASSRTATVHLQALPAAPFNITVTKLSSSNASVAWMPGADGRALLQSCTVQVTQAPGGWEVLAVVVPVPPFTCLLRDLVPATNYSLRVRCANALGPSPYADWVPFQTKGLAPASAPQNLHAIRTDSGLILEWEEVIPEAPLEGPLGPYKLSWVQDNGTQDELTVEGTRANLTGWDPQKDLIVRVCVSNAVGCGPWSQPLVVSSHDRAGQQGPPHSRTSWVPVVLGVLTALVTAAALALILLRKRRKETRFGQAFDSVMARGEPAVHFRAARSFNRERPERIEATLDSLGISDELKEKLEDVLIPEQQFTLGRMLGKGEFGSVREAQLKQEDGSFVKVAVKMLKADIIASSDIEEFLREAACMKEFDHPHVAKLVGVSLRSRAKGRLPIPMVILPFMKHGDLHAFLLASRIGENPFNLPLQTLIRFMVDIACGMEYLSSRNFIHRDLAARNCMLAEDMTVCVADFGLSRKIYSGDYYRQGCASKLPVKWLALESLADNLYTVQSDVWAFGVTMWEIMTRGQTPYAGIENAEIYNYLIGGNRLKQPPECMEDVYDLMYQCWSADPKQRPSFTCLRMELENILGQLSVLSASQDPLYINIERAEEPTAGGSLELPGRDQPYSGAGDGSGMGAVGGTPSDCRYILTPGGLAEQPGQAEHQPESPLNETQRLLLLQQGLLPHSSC

Take `CC(C)n1cc(C(=O)Nc2ccc(-c3cc(C4CCN(C(=O)N(C)C)CC4)n4ncnc(N)c34)cc2)c(=O)n(-c2ccc(F)cc2)c1=O` [Example 65, N-(4-(4-Amino-7-(1-(dimethylcarbamoyl)piperidin-4-yl)pyrrolo[1,2-f][1,2,4]triazin-5-yl)phenyl)-3-(4-fluorophenyl)-1-isopropyl-2,4-dioxo-1,2,3,4-tetrahydropyrimidine-5-carboxamide]: the IC50 (as a rule, the concentration needed to halve the response being measured) is at most 5 nM on phosphor-Axl, at most 5 nM at c-Mer and 10 to 100 nM against Tyro3.

Take `CC(C)C(=O)N1CCC(c2cc(-c3ccc(NC(=O)c4cnc(-c5cccnc5)n(-c5ccccc5)c4=O)cc3)c3c(N)ncnn23)CC1` [Example 116, N-{4-[4-Amino-7-(1-isobutyrylpiperidin-4-yl)pyrrolo[2,1-f][1,2,4]triazin-5-yl]phenyl}-6-oxo-1-phenyl-2-pyridin-3-yl-1,6-dihydropyrimidine-5-carboxamide]: the IC50 was at most 5 nM on phosphor-Axl, at most 5 nM against c-Mer and 10 to 100 nM at Tyro3.

Take `Nc1ncnn2c(C3CCN(CCO)CC3)cc(-c3ccc(NC(=O)c4cccn(-c5ccccc5)c4=O)cc3)c12` [Example 52, N-(4-{4-Amino-7-[1-(2-hydroxyethyl)piperidin-4-yl]pyrrolo[2,1-f][1,2,4]triazin-5-yl}phenyl)-2-oxo-1-phenyl-1,2-dihydropyridine-3-carboxamide]: the figures for the IC50 at phosphor-Axl, against c-Mer and against Tyro3 were at most 5 nM, at most 5 nM and 10 to 100 nM, respectively.

On to `Nc1ncnn2c(C3CCN(CCO)CC3)cc(-c3ccc(NC(=O)c4cccn(-c5ccc(F)cc5)c4=O)cc3F)c12` [Example 55], for which the values for the IC50 on phosphor-Axl, against c-Mer and against Tyro3 were at most 5 nM, at most 5 nM and 5 to 10 nM, respectively.

On to `Cc1c(-c2ncccn2)cc(C(=O)Nc2ccc(-c3cc(C4CCN(C)CC4)n4ncnc(N)c34)cc2)c(=O)n1-c1ccccc1` [Example 109], for which the results for the IC50 on phosphor-Axl, against c-Mer and at Tyro3 were at most 5 nM, at most 5 nM and 5 to 10 nM, respectively.

With `Cc1c(Br)cc(C(=O)Nc2ccc(-c3cc(C4CCN(C(=O)C(C)C)CC4)n4ncnc(N)c34)cc2)c(=O)n1-c1ccccn1` [Example 118, N-(4-(4-Amino-7-(1-isobutyrylpiperidin-4-yl)pyrrolo[2,1-f][1,2,4]triazin-5-yl)phenyl)-5-bromo-6-methyl-2-oxo-2H-[1,2′-bipyridine]-3-carboxamide], the IC50 on phosphor-Axl is at most 5 nM; on c-Mer it was at most 5 nM; on Tyro3 it was over 100 nM.

As for `Nc1ncnn2c(C3CCNCC3)cc(-c3ccc(NC(=O)c4cccn(-c5ccccc5)c4=O)cc3)c12` [Example 32, N-[4-(4-Amino-7-piperidin-4-ylpyrrolo[2,1-f][1,2,4]triazin-5-yl)phenyl]-2-oxo-1-phenyl-1,2-dihydropyridine-3-carboxamide], the results for the IC50 at phosphor-Axl, at c-Mer and at Tyro3 were at most 5 nM, at most 5 nM and 10 to 100 nM, respectively.

On to `CC(C)n1cc(C(=O)Nc2ccc(-c3cc(C4CCN(C(=O)N(C)C)CC4)n4ncnc(N)c34)cc2)c(=O)n(-c2cccc(F)c2)c1=O` [Example 70, N-(4-(4-Amino-7-(1-(dimethylcarbamoyl)piperidin-4-yl)pyrrolo[1,2-f][1,2,4]triazin-5-yl)phenyl)-3-(3-fluorophenyl)-1-isopropyl-2,4-dioxo-1,2,3,4-tetrahydropyrimidine-5-carboxamide], for which the IC50 is at most 5 nM on phosphor-Axl, at most 5 nM against c-Mer and 10 to 100 nM at Tyro3.

Turning to `CCn1cc(C(=O)Nc2ccc(-c3cc(C4CCN(C(=O)N5CCOCC5)CC4)n4ncnc(N)c34)cc2)c(=O)n(-c2ccc(F)cc2)c1=O` [Example 68, N-(4-(4-Amino-7-(1-(morpholine-4-carbonyl)piperidin-4-yl)pyrrolo[1,2-f][1,2,4]triazin-5-yl)phenyl)-1-ethyl-3-(4-fluorophenyl)-2,4-dioxo-1,2,3,4-tetrahydropyrimidine-5-carboxamide], the IC50 on phosphor-Axl was at most 5 nM; against c-Mer, at most 5 nM; against Tyro3, over 100 nM.

Regarding `CC(C)C(=O)N1CCC(c2cc(-c3ccc(NC(=O)c4cn(C5CC5)c(=O)n(-c5ccccc5)c4=O)cc3)c3c(N)ncnn23)CC1` [Example 139, N-(4-(4-Amino-7-(1-isobutyrylpiperidin-4-yl)pyrrolo[2,1-f][1,2,4]triazin-5-yl)phenyl)-1-cyclopropyl-2,4-dioxo-3-phenyl-1,2,3,4-tetrahydropyrimidine-5-carboxamide], the IC50 on phosphor-Axl is at most 5 nM; against c-Mer, at most 5 nM; against Tyro3, over 100 nM.

Turning to `CC(C)C(=O)N1CCC(c2cc(-c3ccc(NC(=O)c4cc5c(n(-c6ccccc6)c4=O)CCCC5=O)cc3)c3c(N)ncnn23)CC1` [Example 74, N-(4-(4-Amino-7-(1-isobutyrylpiperidin-4-yl)pyrrolo[1,2-f][1,2,4]triazin-5-yl)phenyl)-2,5-dioxo-1-phenyl-1,2,5,6,7,8-hexahydroquinoline-3-carboxamide], the IC50 at phosphor-Axl was at most 5 nM; on c-Mer, at most 5 nM; against Tyro3, 10 to 100 nM.

Turning to `CS(=O)(=O)N1CCC(c2cc(-c3ccc(NC(=O)c4cccn(-c5ccc(F)cc5)c4=O)cc3F)c3c(N)ncnn23)CC1` [Example 43], the results for the IC50 at phosphor-Axl, against c-Mer and at Tyro3 were at most 5 nM, at most 5 nM and 10 to 100 nM, respectively.

On to `CN(C)C(=O)N1CCC(c2cc(-c3ccc(NC(=O)c4cccn(-c5ccccc5)c4=O)cc3F)c3c(N)ncnn23)CC1` [Example 46, N-[4-(4-Amino-7-{1-[(dimethylamino)carbonyl]piperidin-4-yl}pyrrolo[2,1-f][1,2,4]triazin-5-yl)-3-fluorophenyl]-2-oxo-1-phenyl-1,2-dihydropyridine-3-carboxamide], for which the IC50 on phosphor-Axl was at most 5 nM; against c-Mer, at most 5 nM; at Tyro3, 10 to 100 nM.

Take `CC(C)C(=O)N1CCC(c2cc(-c3ccc(NC(=O)c4cn(C(C)C)c(=O)n(-c5ccccc5)c4=O)cc3)c3c(N)ncnn23)CC1` [Example 63, N-(4-(4-Amino-7-(1-isobutyrylpiperidin-4-yl)pyrrolo[1,2-f][1,2,4]triazin-5-yl)phenyl)-1-isopropyl-2,4-dioxo-3-phenyl-1,2,3,4-tetrahydropyrimidine-5-carboxamide]: the IC50 at phosphor-Axl was at most 5 nM; against c-Mer, at most 5 nM; at Tyro3, 10 to 100 nM.

As for `CCc1cc(-c2ccc(NC(=O)c3cccn(Cc4ccccc4)c3=O)cc2)c2c(N)ncnn12` [Example 5, N-[4-(4-Amino-7-ethylpyrrolo[2,1-f][1,2,4]triazin-5-yl)phenyl]-1-benzyl-2-oxo-1,2-dihydropyridine-3-carboxamide], the IC50 at phosphor-Axl, on c-Mer and against Tyro3 was over 100 nM throughout.

`Cc1c(-c2ncco2)c(=O)c(C(=O)Nc2ccc(-c3cc(C4CCN(C(=O)C(C)C)CC4)n4ncnc(N)c34)cc2)cn1C1CC1` [Example 119, N-(4-(4-Amino-7-(1-isobutyrylpiperidin-4-yl)pyrrolo[2,1-f][1,2,4]triazin-5-yl)phenyl)-1-cyclopropyl-6-methyl-5-(oxazol-2-yl)-4-oxo-1,4-dihydropyridine-3-carboxamide]: the IC50 at phosphor-Axl was at most 5 nM; against c-Mer, at most 5 nM; against Tyro3, over 100 nM.

With `Nc1ncnn2c(C3CCOCC3)cc(-c3ccc(NC(=O)c4cccn(-c5ccc(F)cc5)c4=O)cc3)c12` [Example 14, N-{4-[4-Amino-7-(tetrahydro-2H-pyran-4-yl)pyrrolo[2,1-f][1,2,4]triazin-5-yl]phenyl}-1-(4-fluorophenyl)-2-oxo-1,2-dihydropyridine-3-carboxamide], the figures for the IC50 on phosphor-Axl, on c-Mer and on Tyro3 were at most 5 nM, at most 5 nM and 10 to 100 nM, respectively.

Regarding `Nc1ncnn2c(C3CCOCC3)cc(-c3ccc(NC(=O)c4cccn(-c5ccc(F)cc5)c4=O)cc3F)c12` [Example 16, N-{4-[4-Amino-7-(tetrahydro-2H-pyran-4-yl)pyrrolo[2,1-f][1,2,4]triazin-5-yl]-3-fluorophenyl}-1-(4-fluorophenyl)-2-oxo-1,2-dihydropyridine-3-carboxamide], the results for the IC50 at phosphor-Axl, at c-Mer and at Tyro3 were at most 5 nM, at most 5 nM and 10 to 100 nM, respectively.

In the case of `COC(=O)N1CCC(c2cc(-c3ccc(NC(=O)c4cccn(-c5ccccc5)c4=O)cc3F)c3c(N)ncnn23)CC1` [Example 38, Methyl 4-[4-amino-5-(2-fluoro-4-{[(2-oxo-1-phenyl-1,2-dihydropyridin-3-yl)carbonyl]amino}phenyl)pyrrolo[2,1-f][1,2,4]triazin-7-yl]piperidine-1-carboxylate], the figures for the IC50 at phosphor-Axl, at c-Mer and against Tyro3 were at most 5 nM, at most 5 nM and 10 to 100 nM, respectively.

`CCn1cc(C(=O)Nc2ccc(-c3cc(C4CCN(C(=O)N(C)C)CC4)n4ncnc(N)c34)cc2)c(=O)n(-c2ccc(F)cc2)c1=O` [Example 67, N-(4-(4-Amino-7-(1-(dimethylcarbamoyl)piperidin-4-yl)pyrrolo[1,2-f][1,2,4]triazin-5-yl)phenyl)-1-ethyl-3-(4-fluorophenyl)-2,4-dioxo-1,2,3,4-tetrahydropyrimidine-5-carboxamide]: the figures for the IC50 on phosphor-Axl, on c-Mer and at Tyro3 were at most 5 nM, at most 5 nM and over 100 nM, respectively.
